What all share (format): cell-based
Experiment [1] deals with T1, GIRK4 S143T mutant channel (GIRK4*) (Rattus norvegicus, UniProt P48548, S143T).
T1 construct: expressed in transfected cells; host or cells: HEK293 / HEK293T
T1 sequence (P48548 1-419 S143T): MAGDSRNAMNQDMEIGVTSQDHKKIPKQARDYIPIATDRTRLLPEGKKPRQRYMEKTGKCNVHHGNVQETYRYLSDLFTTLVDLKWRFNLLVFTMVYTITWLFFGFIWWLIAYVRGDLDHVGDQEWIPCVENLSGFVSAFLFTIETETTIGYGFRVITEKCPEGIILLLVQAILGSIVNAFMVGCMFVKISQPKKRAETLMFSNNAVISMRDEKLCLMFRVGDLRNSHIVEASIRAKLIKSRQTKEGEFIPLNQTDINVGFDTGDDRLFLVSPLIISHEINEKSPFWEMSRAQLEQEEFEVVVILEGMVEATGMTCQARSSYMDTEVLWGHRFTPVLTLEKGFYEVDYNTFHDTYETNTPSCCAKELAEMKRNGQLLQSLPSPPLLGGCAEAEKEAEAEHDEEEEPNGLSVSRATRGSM
Put plainly: whole-cell patch clamp, GIRK4 S143T (GIRK4*) channel. The note with it: for modulation of GIRK4 S143T mutant channel, mean percentage change from basal: n=7; for activation of GIRK4*, mean percentage change from basal current: wild type GIRK4*, n=8. Here is the method:
(§1) Point mutations were introduced by Quickchange site directed mutagenesis kit (Stratagene). The GIRK2 PIP mutant was generated by overlap-PCR method. […] Mutations were confirmed by automated DNA sequencing methods. […] Cells were plated in a 12 well dish, and were transiently transfected using Lipofectamine 2000 (Invitrogen). After 12-24 hrs, cells were re-plated to 12-mm glass coverslips coated with poly-D-[…] microgram/ml). […] The cells were co-transfected with 0.04 micrograms of eYFP cDNA to identify transfected cells. 0.8 micrograms of Muscarinic Receptor 2 (M2R) was also co-transfected for experiments with Carbachol. […] Whole-cell patch clamp recordings were performed 24-72 hrs after transfection. […] Alcohols, 5 μM Carbachol, and 1 mM BaCl2 (diluted in 20K solution) were applied from outside the cell with the rapid perfusion system (Warner Instruments). […] Current-voltage relationships also were obtained from the ramp protocol. This protocol was used to measure the inwardly rectifying currents at -100 mV and to ensure stability of recording by monitoring a reversal potential and inward rectification. […] Alcohol and Carbachol modulated currents were measured by averaging two consecutive current readings upon reaching steady state, and subtracting the averaged basal current before and after the application of modulator.
(In general: Patch clamp records ionic current or voltage across a cell membrane.)

The target of experiment [2] is T2, GIRK2 PIP channel (Mus musculus, UniProt P48542, D228N/I234L/N231K).
T2 construct: expressed in transfected cells; host or cells: HEK293 / HEK293T
T2 sequence (P48542 1-425 D228N/N231K/I234L): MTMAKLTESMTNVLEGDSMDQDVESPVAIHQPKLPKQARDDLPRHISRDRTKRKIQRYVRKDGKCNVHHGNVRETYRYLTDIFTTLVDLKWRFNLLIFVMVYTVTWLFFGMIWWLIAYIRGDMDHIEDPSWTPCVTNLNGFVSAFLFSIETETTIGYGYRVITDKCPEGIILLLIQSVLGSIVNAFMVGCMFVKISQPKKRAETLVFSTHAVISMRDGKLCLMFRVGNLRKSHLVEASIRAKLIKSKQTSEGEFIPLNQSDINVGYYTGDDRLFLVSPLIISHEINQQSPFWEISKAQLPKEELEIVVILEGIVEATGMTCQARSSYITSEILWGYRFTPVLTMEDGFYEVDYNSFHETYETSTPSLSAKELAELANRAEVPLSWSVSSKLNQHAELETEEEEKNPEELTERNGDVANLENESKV
Put plainly: whole-cell patch clamp, GIRK2 PIP chimeric channel. The note with it: equimolar alcohol series (50 mM).
Experimental: To test whether this sensitivity to inhibition would be altered by mutation at the MPD-bound hydrophobic pocket, Leu257 was mutated to Trp for this channel.
HEK 293T cells were cultured in DMEM supplemented with 10% FBS, and 1× Glutamax (Invitrogen) in a humidified 37° incubator with 5% CO2. Cells were plated in a 12 well dish, and were transiently transfected using Lipofectamine 2000 (Invitrogen). After 12-24 hrs, cells were re-plated to 12-mm glass coverslips coated with poly-D-Lysine (20 microgram/ml).
HEK293 cells were transfected with 0.2 micrograms of channel cDNA. The cells were co-transfected with 0.04 micrograms of eYFP cDNA to identify transfected cells. 0.8 micrograms of Muscarinic Receptor 2 (M2R) was also co-transfected for experiments with Carbachol. For experiments with and without m-phosducin, 0.8 ug of m-phosducin cDNA was used versus a PCDNA3.1 vector control.
Whole-cell patch clamp recordings were performed 24-72 hrs after transfection. Borosilicate glass electrodes (Warner Instruments) of 5-7 milliohms filled with intracellular solution (130 mM KCl, 20 mM NaCl, 5 mM EGTA, 2.56 mM K2ATP, 5.46 mM MgCl2, 0.30 mM Li2GTP, and 10 mM HEPES (pH 7.4)) was used. Membrane currents were recorded using Axopatch 200B (Axon Instruments) amplifier, adjusted electronically for cell capacitance and series resistance (80-100%), filtered at 1 kHz with an 8-pole Bessel filter and digitized at 5 kHz with a Digidata 1200 interface (Axon Instruments). The cells rapidly perfused with a 20 mM K^+ (20K) solution (20 mM KCl, 140 mM NaCl, 0.5 mM CaCl2, 2 mM MgCl2 and 10 mM HEPES (pH7.4)). Alcohols, 5 μM Carbachol, and 1 mM BaCl2 (diluted in 20K solution) were applied from outside the cell with the rapid perfusion system (Warner Instruments). Whole-cell currents were measured using a ramp protocol that holds at −40 mV, steps to −100 mV then ramps to +50 mV and repeats every 2 seconds. Current-voltage relationships also were obtained from the ramp protocol. This protocol was used to measure the inwardly rectifying currents at −100 mV and to ensure stability of recording by monitoring a reversal potential and inward rectification. Current density was measured by dividing inward current at −100 mV by membrane capacitance that was compensated during the recording. Basal currents were measured as the Ba^++ blocked inward currents at −100 mV. Alcohol and Carbachol modulated currents were measured by averaging two consecutive current readings upon reaching steady state, and subtracting the averaged basal current before and after the application of modulator. Pooled data are presented as Mean±SEM and evaluated for statistical significance by a 1-way ANOVA, followed by Bonferroni's multiple comparison post-hoc test.

Experiment [3] concerns the target T3, GIRK4 (Rattus norvegicus, UniProt P48548).
T3 construct: expressed in transfected cells; host or cells: HEK293 / HEK293T
T3 sequence (P48548 1-419): T1 sequence (P48548 1-419 S143T) with T143S
Put plainly: whole-cell patch clamp, GIRK4 homo-tetramers. The note with it: n=7. As to the method: as §1

In experiment [4] the target is T4, GIRK4* L252W mutant channel (Rattus norvegicus, UniProt P48548, L252W/S143T).
T4 construct: expressed in transfected cells; host or cells: HEK293 / HEK293T
T4 sequence (P48548 1-419 S143T/L252W): T1 sequence (P48548 1-419 S143T) with L252W
Put plainly: whole-cell patch clamp, GIRK4* L252W mutant channel. The note with it: for modulation of GIRK4* L252W mutant channel, percentage change from basal (negative = inhibition): n=8. Here is the method:
as §1

For experiment [5], the target named is T5, GIRK2 L257W mutant channel (Mus musculus, UniProt P48542, L257W).
T5 construct: expressed in transfected cells; host or cells: HEK293T
T5 sequence (P48542 1-425 L257W): T2 sequence (P48542 1-425 D228N/N231K/I234L) with N228D, K231N, L234I, L257W
Put plainly: whole-cell patch clamp, GIRK2 L257W mutant channel. To be noted: n=9; for modulation of GIRK2 L257W, percentage change from basal current (negative = inhibition): alcohols as for wild type (100 mM). As to the method:
as §1

The subject of experiment [6] is GIRK2 L257Y mutant channel. The experiment can be described thus: whole-cell patch clamp, GIRK2 L257Y mutant channel. To be noted: n=9; for activation of GIRK2 L257Y, percentage change from basal current: alcohols as for wild type (100 mM). Here is the method: as §1
Setting [7] is: 5 μM Carbachol, M2R co-transfected.

Here are results for 5 compounds from patent US8097422B2, “Kir channel modulators” (Salk Institute for Biological Studies, priority 2007, dated 2012).

Residue numbers refer to the chain shown, from its start.

Turning to 1-butanol [1-BuOH], the “modulation of GIRK4 S143T mutant channel, mean percentage change from basal” value in experiment [1] turned out to be 23±3%. Also, the “inhibition of GIRK2 PIP channel, percentage inhibition” value (from here on “inhibition … percentage inhibition”) in experiment [2] was −97±1%. Moreover, the “modulation of GIRK4 currents, mean percentage change from basal (negative = inhibition)” value in experiment [3] is reported as −70±3%.
Regarding 1-propanol [1-PrOH], the “modulation of GIRK4* L252W mutant channel, percentage change from basal (negative = inhibition)” value in experiment [4] was −19±2%. Moreover, the “modulation of GIRK2 L257W, percentage change from basal current (negative = inhibition)” value in experiment [5] came to 57±6%. Besides, in experiment [1], the “modulation of GIRK4 S143T mutant channel, mean percentage change from basal” value was found to be 51±6% and the “activation of GIRK4*, mean percentage change from basal current” value is listed as 64±7%. Moreover, the “inhibition … percentage inhibition” value in experiment [2] is −87±2%. Moreover, in experiment [3], the “modulation of GIRK4 currents, mean percentage change from basal (negative = inhibition)” value is listed as 43±7%. Also, the “activation of GIRK2 L257Y, percentage change from basal current” value in experiment [6] came out at 275±34%.
Consider `CC(O)CC(C)(C)O` (racemic) [MPD, 2-methyl-2,4-pentanediol], for which, in experiment [5], the “modulation of GIRK2 L257W, percentage change from basal current (negative = inhibition)” value is −97±4%. In experiment [1], the “modulation of GIRK4 S143T mutant channel, mean percentage change from basal” value was found to be 87±12% and the “activation of GIRK4*, mean percentage change from basal current” value turned out to be 113±14%. The “inhibition … percentage inhibition” value in experiment [2] is −80±2%. In addition, the “modulation of GIRK4 currents, mean percentage change from basal (negative = inhibition)” value in experiment [3] is listed as 55±8%. In addition, in experiment [6], the “activation of GIRK2 L257Y, percentage change from basal current” value came to 73±10%.
Turning to `C[N+](C)(C)CCOC(N)=O` [Carbachol], the “Carb (G-protein mediated) activation, GIRK4* L252 Trp” value in experiment [4] (5 μM Carbachol) came to 23±3%. The “G-protein mediated activation, GIRK2 L257W, percentage change from basal current” value in experiment [5] (setting [7]) was found to be 12±2%. Also, the “Carb activation of GIRK4* wild type, % of basal current” value in experiment [1] (setting [7]) is 231±38%. In addition, the “Carbachol activation, GIRK2 L257Y, percentage change from basal current” value in experiment [6] (setting [7]) is given as 38±11%.
Turning to `CCO` [EtOH, ethanol], the “modulation of GIRK4* L252W mutant channel, percentage change from basal (negative = inhibition)” value in experiment [4] was 5±2%. The “modulation of GIRK2 L257W, percentage change from basal current (negative = inhibition)” value in experiment [5] was found to be 34±3%. In addition, in experiment [1], the “modulation of GIRK4 S143T mutant channel, mean percentage change from basal” value is recorded as 35±4% and the “activation of GIRK4*, mean percentage change from basal current” value came to 36±3%. The “inhibition … percentage inhibition” value in experiment [2] is −18±2%. In addition, the “modulation of GIRK4 currents, mean percentage change from basal (negative = inhibition)” value in experiment [3] worked out at 43±6%. For the same compound, the “activation of GIRK2 L257Y, percentage change from basal current” value in experiment [6] turned out to be 92±10%.
